Experimental data from patent publication EP4205768A1, “MAGNETIC SOLID LIPID NANOPARTICLES, METHODS AND USES THEREOF” (priority 2021, dated 2023).
pIC50: −log10 of the molar value. “Also recorded” adds a separate entry of the source.

Key:
Hs578t tumor = test: In ovo (CAM) tumor growth model; format: in vivo, chicken; details: 2xIC50 (DOX concentration), treated at day 13, read at day 17
Procedure: (§1) (A) In ovo pictures at day 13 of embryo development and in ovo and ex ovo pictures at day 17; representative images were taken at 20x in a Zeiss stereomicroscope. (B) Graphical representation of tumor growth. Data was analyzed by one-way ANOVA and the results are representative for the mean of at least 15 eggs per group;^∗∗∗p<0.0001 ^∗p<0.05. Hs578t cells were used to establish a TNBC chicken egg model. Fertilized eggs were incubated for 9 days and, at this time, the chicken embryo is surrounded by the CAM which provides nutrients for its development. At day 13 of development, the tumor mass could be visualized and the resulting tumors were treated with 2xlC50 EBR85-functionalized nanoparticles (corresponding to DOX concentration). The same concentration of DOX was used for the group treated with DOX alone. Also, a control group treated with DMEM medium was used to evaluate tumorgrowth. […] As observed in Figure 16, a significant reduction on tumor size could be appreciated for the EBR85-treated group, comparing to the control and DOX-treated groups.

Hs-578T cells = test: Wound-healing (cell migration) assay; format: cell-based; details: at the IC50 DOX concentration, up to 48h
Procedure: The effect of the functionalized mSLNs AF-2 (EBR85, T-sensitive, +DOX) and AF-3 (EBR89, T-insensitive, -DOX) and reference compound (DOX) on the cell migration capability of Hs-578T cells was assessed through the wound-healing assay. mSLNs (with and without DOX) at the IC50 DOX concentration and equivalent mSLNs were used in the experiment. EBR89 (without DOX) was selected to study the effect of the nanoparticle nature on this tumorigenic feature and evaluate its toxicity. Cell migration and invasion are two hallmarks of cancer correlated to cancer progression and metastasis which correspond to a worse cancer prognosis.
Results are presented as mean ± SD of at least three independent experiments.

[1] = test system: triple negative breast cancer cells (Hs-578T); test: Resazurine cell viability assay, 2D culture, with or without magnetic hyperthermia; format: cell-based; details: Homo sapiens
Procedure: In an embodiment, 2D- cell culture was prepared. Hs-578T and MBA-MB-231 TNBC cell lines (ATCC HTB-126 and ATCC Htb-26, respectively) were grown in Dulbecco's Modified Eagle's Medium (DMEM) supplemented with 10% foetal bovine serum and 1% penicillin/streptomycin. THP-1 peripheral blood monocytes (ATCC TIB-202) were grown in Gibco Roswell Park Memorial Institute (RPMI) medium supplemented with 10% foetal bovine serum and 1% penicillin/streptomycin. All cell lines were incubated at 37 °C in a 5% CO2 atmosphere.
In an embodiment, cell viability was assessed. The Resazurine assay was used to calculate the cell viability. The assay is based on the reduction by living cells of the oxidized blue dye to a pink fluorescent resorufin product. […] The fluorescence of each condition was then read with an Biotek Synergy H1 plate reader, and compared to the controls using the formula {Viability = (Treated cells−blank)/(Untreated cells−blank) × 100 [formula] }. […] For each, the inhibitory concentration 50 (IC50) of each formulation was calculated using the DRC R-package. […] The activity gain (AG) for the different formulations was calculated as {AGF=100×(IC50^(free DOX) −IC50^mSLNP)/(IC50^(free DOX))} [formula] , whilst the AG of the magnetic hyperthermia event was calculated as {AGMH=100×(IC50^noHT −IC50^HT)/(IC50^noHT)} [formula] . […]

Hs-578T polyspheroids = test: 3D polyspheroid growth assay with dual treatment (formulation + AMF); format: cell-based; details: 2 µM relative to DOX + 1h AMF on days 1, 3 and 5; monitored 19 days
Procedure: In an embodiment, 3D spheroids were prepared. In a 96-well plate was a hot and sterile solution of 1% agarose added (100 µL) and left to cool for 30 min at 4 °C. Then, the plate was tempered and 20000 cancer cells added to each well in 120 µ L of medium. The plate was centrifugated at 800 G during 30 min to promote the formation of the spheroid. The Spheroids were incubated for one week with a medium change every 3 days, until a small dense Spheroid was formed. These spheroids were used in confocal microscopy, or to form poly-spheroids. […]
In an embodiment, growth assay was performed. […] The polyspheroids were monitored every 2 days before treatments or medium change, using an inverted phase-contrast microscope (Nikon Eclipse TS100, Nikon Corporation, Tokyo, Japan) connected to a digital camera (Nikon, DS-Fi1). […] The images were analyzed with image J and R statistical language, using R-packages imager and EBImage, to determine the area of each polyspheroids treated with each condition for every day analyzed. The growth of the polyspheroids were normalized in regards to their own initial area at the start of the experiment, and calculated as { Growth = 100 × (Area−Area^day1)/(Area^day1) [formula] }. The daily growth was calculated as {Growth^daily=(∑Growth)/(19 days)} [formula] . […]

chick embryo = test: Toxicity to the embryo in the in ovo model; format: in vivo, chicken; details: 2xIC50 (DOX concentration), throughout the experiment
Procedure: as §1

Q: COc1cccc2c1C(=O)c1c(O)c3c(c(O)c1C2=O)C[C@@](O)(C(=O)CO)C[C@@H]3O[C@H]1C[C@H](N)[C@H](O)[C@H](C)O1 [DOX, Doxorubicin] was tested. Which “regression in the tumors' area” value (Hs578t tumor) did it give?
A: The value was 11%.

Q: What about the cell migration capability (Hs-578T cells) of the same molecule?
A: The cell migration capability was “very low migration capability”.

Q: And the pIC50 ([1]; 72h, without magnetic hyperthermia)?
A: The pIC50 was 5.80.

Q: What about the pIC50 ([1]; Figure 4C experiment, EBR85 with 1h magnetic hyperthermia then 72 h, free DOX as reference) of the same molecule?
A: Its pIC50 is 5.82.

Q: What about the polyspheroid growth (Hs-578T polyspheroids) of the same molecule?
A: The polyspheroid growth was “continued to grow during the first week of treatment; also recorded: slowing down its growth”.

Q: And the “toxicity to the chick embryo” value (chick embryo)?
A: Its value is “no toxicity”.
